Test results from article PMC10892419, “UHPLC-MS/MS Assay for Quantification of Legubicin, a Novel Doxorubicin-Based Legumain-Activated Prodrug, and Its Application to Pharmacokinetic and Tissue Distribution Studies” (Molecules, 2024).

Columns and labels:
[1] = Single-dose pharmacokinetic study of legubicin, i.v.; conditions: free metabolite in plasma; for AUClast / Cmax: n = 3, mean ± SD; for Tmax: n = 3, median [min, max]
Description: The pharmacokinetic parameters are outlined in Table 5. […] A power-function model was used to fit the relationship between exposure level (Cmax, AUClast, and AUCINF_obs) parameters and dose, and the power exponent (parameter β) and its 90% confidence interval were obtained (see Table S5).
(§1) The mixture was vortexed for 3 min, and then centrifuged at 22,000× g at 4 °C for 10 min. A final analysis was conducted by injecting 5 µL supernatant into a UHPLC-MS/MS system. Mouse plasma samples were treated in the same way as the rat plasma samples, except for protein precipitation, with 200 µL of 5 pmol/mL IS working solution and injection of 2 µL of supernatant for analysis.
(§2) (1) For the hydrolysis process, an aliquot of 25 µL of rat/mouse plasma was transferred into an Eppendorf tube, and then 50 µL of enzyme digestion buffer and 25 µL of legumain enzyme were placed into the tube. The mixture was vortexed for 1 min, and then incubated in a water bath for 24 h at 37 °C for enzymatic hydrolysis. (2) For the protein precipitation process, 1000 µL of IS working solution (5 pmol/mL and 50 pmol/mL for rat and mouse plasmas, respectively) was added to the enzymatic-hydrolysis solution. Then, the sample was vortexed for 3 min and centrifuged at 22,000× g for 10 min at 4 °C. Analyses were performed on the 3 µL aliquot of the solution used in the UHPLC-MS/MS system.
(§3) Twenty-four rats, inclusive of both sexes, were randomly distributed into four groups. Groups 1, 2, and 3 were single-dose groups, among which the subjects received legubicin via tail intravenous injection (a dose of 1.5, 5, or 15 mg/kg; i.e., 1.36, 4.52, or 13.6 µmol/kg). The fourth group was utilized for a multi-dose study at 5 mg/kg (once-weekly for 4 consecutive weeks). Blood samples of approximately 150 µL were taken from the jugular vein at 0 h (pre-dosing) and at 0.167 h (10 min), 0.5 h, 1 h, 2 h, 4 h, 8 h, 24 h, 48 h, and 72 h post-dosing in the single-dose groups. Samples were also obtained on days 1 and 22 for the multiple-dose group in the same way as for the single-dose groups. However, on days 8 and 15, samples were taken only before and 10 min after administration. The K2EDTA quantities containing blood samples were centrifuged (4 °C, 4000 rpm, 10 min) to collect plasma samples, which were separated into EP tubes and kept at −80 °C until further assay.
(§4) The analysis software (Version 1.5.2, AB Sciex, Vaughan, ON, Canada) was applied to data acquisition and quantification. Pharmacokinetic parameters were calculated with WinNonlin Phoenix (v6.4, Pharsight, Mountain View, CA, USA) with the noncompartmental method, and were presented as mean ± SD (%CV). The “Best fit” strategy in the WinNonlin Phoenix was used for the calculation of elimination half-life and the selection of the elimination phase. Graphs were plotted by GraphPad Software (GraphPad Prism 8.0.2; GraphPad Software, Inc., La Jolla, CA, USA).

[2] = Storage stability of analytes in mouse plasma (method validation); conditions: for Freeze and thaw stability at -80 °C/ room temperature, Bias / Freeze and thaw stability at -80 °C/ room temperature, Measured concentration / Long term stability at -80 °C (30 days), Bias / Short term stability at room temperature (6 h), Bias / Long term stability at -80 °C (30 days), Measured concentration / Short term stability at room temperature (6 h), Measured concentration: mouse plasma; for Freeze and thaw stability at -80 °C/ room temperature, Bias / Freeze and thaw stability at -80 °C/ room temperature, Measured concentration: 1 cycle; for Freeze and thaw stability at -80 °C/ room temperature, Bias / Long term stability at -80 °C (30 days), Bias / Short term stability at room temperature (6 h), Bias / Auto-sampler stability at 2-8 °C, Bias: n = 6; for Freeze and thaw stability at -80 °C/ room temperature, Measured concentration / Long term stability at -80 °C (30 days), Measured concentration / Short term stability at room temperature (6 h), Measured concentration / Auto-sampler stability at 2-8 °C, Measured concentration: n = 6, mean ± SD; for Auto-sampler stability at 2-8 °C, Bias / Auto-sampler stability at 2-8 °C, Measured concentration: processed mouse plasma, 12 h
Description: (§5) By investigating low- and high-concentration stability QCs in six replicates at different storage conditions, autosampler, short-term (bench-top), freeze and thaw, and long-term stability evaluations were conducted.

[3] = Multiple-dose pharmacokinetic study of legubicin, weekly i.v. for 4 weeks; conditions: free metabolite in plasma, weekly i.v. legubicin 5 mg/kg; for Tmax: median [min, max]; for AUClast / Cmax: n = 3
Description: as §1, §2, §3, §4

[4] = Storage stability of analytes in rat plasma (method validation); conditions: for Auto-Sampler Stability at 2–8 °C (72 h), Bias / Auto-Sampler Stability at 2–8 °C (72 h), Measured Concentration: processed rat plasma; for Auto-Sampler Stability at 2–8 °C (72 h), Bias / Short-Term Stability at Room Temperature (4 h), Bias / Freeze and Thaw Stability at −80 °C/Room Temperature (3 Cycles), Bias / Long-Term Stability at −80 °C (70 days), Bias: n = 6; for Auto-Sampler Stability at 2–8 °C (72 h), Measured Concentration / Freeze and Thaw Stability at −80 °C/Room Temperature (3 Cycles), Measured Concentration / Long-Term Stability at −80 °C (70 days), Measured Concentration / Short-Term Stability at Room Temperature (4 h), Measured Concentration: n = 6, mean ± SD; for Short-Term Stability at Room Temperature (4 h), Bias / Freeze and Thaw Stability at −80 °C/Room Temperature (3 Cycles), Bias / Long-Term Stability at −80 °C (70 days), Bias / Freeze and Thaw Stability at −80 °C/Room Temperature (3 Cycles), Measured Concentration / Long-Term Stability at −80 °C (70 days), Measured Concentration / Short-Term Stability at Room Temperature (4 h), Measured Concentration: rat plasma; for Short-Term Stability at Room Temperature (4 h), Bias: bias from nominal
Description: as §5

[5] = Storage stability of analytes in mouse tumor homogenate (method validation)
Description: (§6) Tumor-bearing mouse tumor/individual tissue samples were homogenized by adding PBS at a ratio of 1:5 (e.g., 1 g of tumor sample to 5 mL of PBS) to make a tumor/tissue homogenate. A quantity of 60 µL of homogenate was taken as a tumor/tissue sample and processed in the same manner as the mouse plasma sample, with the exception of 240 µL of IS working solution used for protein precipitation.
as §5

[6] = Storage stability of analytes in mouse liver homogenate (method validation)
Description: as §6, §5

[7] = female SD rats, single i.v. legubicin 1.5 mg/kg
[8] = female SD rats, single i.v. legubicin 5 mg/kg
[9] = female SD rats, single i.v. legubicin 15 mg/kg
[10] = male SD rats, single i.v. legubicin 1.5 mg/kg
[11] = male SD rats, single i.v. legubicin 5 mg/kg
[12] = male SD rats, single i.v. legubicin 15 mg/kg
[13] = high QC (Leu-DOX 2400, DOX 800 pmol/mL)
[14] = high QC (nominal Leu-DOX 2400, DOX 800 pmol/mL)
[15] = low QC (Leu-DOX 9, DOX 3 pmol/mL)
[16] = low QC (nominal Leu-DOX 9, DOX 3 pmol/mL)
[17] = high QC (Leu-DOX 2400, DOX 800 pmol/mL, conjugate 80 nmol/mL)
[18] = low QC (Leu-DOX 9, DOX 3 pmol/mL, conjugate 0.2 nmol/mL)
[19] = female SD rats, multiple dose (day 22)
[20] = female SD rats, single dose (day 1)
[21] = male SD rats, multiple dose (day 22)
[22] = male SD rats, single dose (day 1)
[23] = high QC (Leu-DOX 4000, DOX 1200 pmol/mL, conjugate 80 nmol/mL)
[24] = high QC (nominal Leu-DOX 4000, DOX 1200 pmol/mL)
[25] = low QC (Leu-DOX 10, DOX 3 pmol/mL, conjugate 0.2 nmol/mL)
[26] = low QC (nominal Leu-DOX 10, DOX 3 pmol/mL)

## COc1cccc2c1C(=O)c1c(O)c3c(c(O)c1C2=O)C[C@@](O)(C(=O)CO)C[C@@H]3O[C@H]1C[C@H](NC(=O)[C@@H](N)CC(C)C)[C@H](O)[C@H](C)O1 [Leu-DOX, N-L-leucyl-doxorubicin]
[1]; [7]
  AUClast: 6.44 ± 2.02 pmol·h/mL
  Cmax: 21.5 ± 7.78 pmol/mL
  Tmax: 0.167 [0.167, 0.167] h
[1]; [8]
  AUClast: 52.0 ± 16.2 pmol·h/mL
  Cmax: 72.1 ± 16.0 pmol/mL
  Tmax: 0.167 [0.167, 0.167] h
[1]; [9]
  AUClast: 336 ± 62.5 pmol·h/mL
  Cmax: 373 ± 63.2 pmol/mL
  Tmax: 0.167 [0.167, 0.167] h
[1]; [10]
  AUClast: 11.2 ± 2.1 pmol·h/mL
  Cmax: 29.5 ± 2.74 pmol/mL
  Tmax: 0.167 [0.167, 0.167] h
[1]; [11]
  AUClast: 94.3 ± 10.5 pmol·h/mL
  Cmax: 145 ± 23.9 pmol/mL
  Tmax: 0.167 [0.167, 0.167] h
[1]; [12]
  AUClast: 1030 ± 244 pmol·h/mL
  Cmax: 1100 ± 243 pmol/mL
  Tmax: 0.167 [0.167, 0.167] h
[2]; [13]
  Freeze and thaw stability at -80 °C/ room temperature, Bias: -1.8%
  Auto-sampler stability at 2-8 °C, Bias: -2.4%
[2]; [14]
  Freeze and thaw stability at -80 °C/ room temperature, Measured concentration: 2356.67 ± 81.65 pmol/mL
  Long term stability at -80 °C (30 days), Measured concentration: 2636.67 ± 103.47 pmol/mL
  Short term stability at room temperature (6 h), Measured concentration: 2275.00 ± 81.67 pmol/mL
  Auto-sampler stability at 2-8 °C, Measured concentration: 2341.67 ± 132.43 pmol/mL
[2]; [15]
  Freeze and thaw stability at -80 °C/ room temperature, Bias: -1.4%
  Auto-sampler stability at 2-8 °C, Bias: -3.1%
[2]; [16]
  Freeze and thaw stability at -80 °C/ room temperature, Measured concentration: 8.87 ± 0.24 pmol/mL
  Long term stability at -80 °C (30 days), Measured concentration: 9.08 ± 0.43 pmol/mL
  Short term stability at room temperature (6 h), Measured concentration: 8.71 ± 0.32 pmol/mL
  Auto-sampler stability at 2-8 °C, Measured concentration: 8.72 ± 0.62 pmol/mL
[2]; [17]
  Long term stability at -80 °C (30 days), Bias: 9.9%
  Short term stability at room temperature (6 h), Bias: -5.3%
[2]; [18]
  Long term stability at -80 °C (30 days), Bias: 0.9%
  Short term stability at room temperature (6 h), Bias: -3.2%
[3]; [19]
  Tmax: 0.167 [0.167, 0.167] h
  AUClast: 60.4 ± 6.43 pmol·h/mL
  Cmax: 80.3 ± 8.57 pmol/mL
[3]; [20]
  Tmax: 0.167 [0.167, 0.167] h
  AUClast: 38.7 ± 1.04 pmol·h/mL
  Cmax: 60.0 ± 6.89 pmol/mL
[3]; [21]
  Tmax: 0.167 [0.167, 0.167] h
  AUClast: 112 ± 14.0 pmol·h/mL
  Cmax: 141 ± 22.0 pmol/mL
[3]; [22]
  Tmax: 0.167 [0.167, 0.167] h
  AUClast: 81.0 ± 13.3 pmol·h/mL
  Cmax: 111 ± 13.5 pmol/mL
[4]; [23]
  Auto-Sampler Stability at 2–8 °C (72 h), Bias: −6.0%
  Short-Term Stability at Room Temperature (4 h), Bias: −3.2%
  Freeze and Thaw Stability at −80 °C/Room Temperature (3 Cycles), Bias: −5.6%
  Long-Term Stability at −80 °C (70 days), Bias: 7.5%
[4]; [24]
  Auto-Sampler Stability at 2–8 °C (72 h), Measured Concentration: 3758.33 ± 422.58 pmol/mL
  Freeze and Thaw Stability at −80 °C/Room Temperature (3 Cycles), Measured Concentration: 3775.00 ± 329.89 pmol/mL
  Long-Term Stability at −80 °C (70 days), Measured Concentration: 4300.00 ± 240.83 pmol/mL
  Short-Term Stability at Room Temperature (4 h), Measured Concentration: 3871.67 ± 390.25 pmol/mL
[4]; [25]
  Auto-Sampler Stability at 2–8 °C (72 h), Bias: −0.4%
  Short-Term Stability at Room Temperature (4 h), Bias: −2.4%
  Freeze and Thaw Stability at −80 °C/Room Temperature (3 Cycles), Bias: 2.0%
  Long-Term Stability at −80 °C (70 days), Bias: 0.7%
[4]; [26]
  Auto-Sampler Stability at 2–8 °C (72 h), Measured Concentration: 9.96 ± 0.48 pmol/mL
  Freeze and Thaw Stability at −80 °C/Room Temperature (3 Cycles), Measured Concentration: 10.20 ± 0.70 pmol/mL
  Long-Term Stability at −80 °C (70 days), Measured Concentration: 10.07 ± 1.50 pmol/mL
[4]; low QC (nominal Leu-DOX 10, DOX 3 pmol/mL), UHPLC-MS/MS
  Short-Term Stability at Room Temperature (4 h), Measured Concentration: 9.76 ± 0.41 pmol/mL
[5]; mouse tumor homogenate, 3 cycles, low QC (Leu-DOX 27, DOX 9 pmol/mL), n = 6
  Freeze and thaw stability at -80 °C/ room temperature, Bias: 2.6%
[5]; mouse tumor homogenate, 3 cycles, low QC (nominal Leu-DOX 27, DOX 9 pmol/mL), n = 6, mean ± SD
  Freeze and thaw stability at -80 °C/ room temperature, Measured concentration: 27.70 ± 1.13 pmol/mL
[5]; mouse tumor homogenate, low QC (Leu-DOX 27, DOX 9 pmol/mL), n = 6
  Short term stability at room temperature (6 h), Bias: 2.2%
[5]; mouse tumor homogenate, low QC (nominal Leu-DOX 27, DOX 9 pmol/mL), n = 6, mean ± SD
  Short term stability at room temperature (6 h), Measured concentration: 27.58 ± 1.95 pmol/mL
[5]; processed mouse tumor homogenate, 48h, low QC (Leu-DOX 27, DOX 9 pmol/mL), n = 6
  Auto-sampler stability at 2-8 °C, Bias: -0.4%
[5]; processed mouse tumor homogenate, 48h, low QC (nominal Leu-DOX 27, DOX 9 pmol/mL), n = 6, mean ± SD
  Auto-sampler stability at 2-8 °C, Measured concentration: 26.88 ± 0.94 pmol/mL
[6]; mouse liver homogenate, 3 cycles, low QC (Leu-DOX 27, DOX 10 pmol/mL), n = 6
  Freeze and thaw stability at -80 °C/ room temperature, Bias: 0.9%
[6]; mouse liver homogenate, 3 cycles, low QC (nominal Leu-DOX 27, DOX 10 pmol/mL), n = 6, mean ± SD
  Freeze and thaw stability at -80 °C/ room temperature, Measured concentration: 27.23 ± 1.55 pmol/mL
[6]; mouse liver homogenate, low QC (Leu-DOX 27, DOX 10 pmol/mL), n = 6
  Short term stability at room temperature (6 h), Bias: -4.8%
[6]; mouse liver homogenate, low QC (nominal Leu-DOX 27, DOX 10 pmol/mL), n = 6, mean ± SD
  Short term stability at room temperature (6 h), Measured concentration: 25.72 ± 1.45 pmol/mL
[6]; processed mouse liver homogenate, 48h, low QC (Leu-DOX 27, DOX 10 pmol/mL), n = 6
  Auto-sampler stability at 2-8 °C, Bias: 3.6%
[6]; processed mouse liver homogenate, 48h, low QC (nominal Leu-DOX 27, DOX 10 pmol/mL), n = 6, mean ± SD
  Auto-sampler stability at 2-8 °C, Measured concentration: 27.97 ± 3.06 pmol/mL
